Tests used:
[1] = target: SREBP-2 (Homo sapiens (Human), UniProt Q12772); assay: In vitro assay SREBP-2: PathHunter U2OS SREBP-2 Nuclear Translocation Cell Line, U18666A-stimulated; format: cell-based; conditions: PathHunter U2OS SREBP-2 nuclear translocation cells, U18666A 10 μM, overnight (16 hours)
[2] = target: LXRβ (Homo sapiens (Human), UniProt P55055); assay: In vitro assay LXRβ: PathHunter NHR CHO cells, LXRβ / Steroid Receptor Co-activator Peptide enzyme fragment complementation; format: cell-based; conditions: PathHunter NHR CHO cells, full-length human LXRβ and SRCP, chemiluminescent signal; read-out: LXRβ PPI
Summary of the method: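 Co-activator recruitment measured by chemiluminescence after signal generation. The CHO line carries full-length human LXRβ tagged with ProLink and an SRCP–enzyme acceptor fusion in the nucleus; cells sat overnight at 37° C before testing, in charcoal-dextran filtered serum medium with 1% final vehicle.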

Chain of LXRβ (P55055 whole entry, the tested form may be a part): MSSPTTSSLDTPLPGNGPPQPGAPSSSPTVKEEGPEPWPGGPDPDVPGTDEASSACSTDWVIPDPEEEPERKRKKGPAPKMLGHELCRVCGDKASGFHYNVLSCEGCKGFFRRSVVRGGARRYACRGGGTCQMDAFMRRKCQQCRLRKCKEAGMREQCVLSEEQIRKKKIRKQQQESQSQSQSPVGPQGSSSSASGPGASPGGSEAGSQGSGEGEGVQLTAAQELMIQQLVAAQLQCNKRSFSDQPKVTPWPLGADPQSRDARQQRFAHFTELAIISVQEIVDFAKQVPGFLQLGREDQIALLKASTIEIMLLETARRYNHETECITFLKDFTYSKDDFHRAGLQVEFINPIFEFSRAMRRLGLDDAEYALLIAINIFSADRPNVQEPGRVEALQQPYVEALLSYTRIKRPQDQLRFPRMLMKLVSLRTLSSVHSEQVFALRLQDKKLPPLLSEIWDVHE

Compound	IC50 [1]	EC50 [2]
C[C@H](CCC(=O)N1CCN(c2cccnc2O)CC1)[C@H]1CC[C@H]2[C@@H]3CC=C4C[C@@H](O)CC[C@]4(C)[C@H]3CC[C@]12C [Example 640, (R)-4-((3S,8S,9S,10R,13R,14S,17R)-3-hydroxy-10,13-dimethyl-2,3,4,7,8,9,10,11,12,13,14,15,16,17-tetradecahydro-1H-cyclopenta[a]phenanthren-17-yl)-1-(4-(2-hydroxypyridin-3-yl)piperazin-1-yl) pentan-1-one]	< 0.25 µM	> 10 µM
C[C@@H](CCC(=O)N[C@H]1CC[C@@H](C(=O)N(C)C)CC1)[C@H]1CC[C@H]2[C@@H]3CC=C4C[C@@H](O)CC[C@]4(C)[C@H]3CC[C@]12C [Example 641, (1S,4s)-4-((R)-4-((3S,8S,9S,10R,13R,14S,17R)-3-hydroxy-10,13-dimethyl-2,3,4,7,8,9,10,11,12,13,14,15,16,17-tetradecahydro-1H-cyclopenta[a]phenanthren-17-yl)pentanamido)-N,N-dimethylcyclohexane-1-carboxamide]	< 0.25 µM	> 10 µM
C[C@H](CCC(=O)N(C)C1CCN(C(=O)C2CC2)CC1)[C@H]1CC[C@H]2[C@@H]3CC=C4C[C@@H](O)CC[C@]4(C)[C@H]3CC[C@]12C [Example 642, (R)—N-(1-(cyclopropanecarbonyl)piperidin-4-yl)-4-((3S,8S,9S,10R,13R,14S,17R)-3-hydroxy-10,13-dimethyl-2,3,4,7,8,9,10,11,12,13,14,15,16,17-tetradecahydro-1H-cyclopenta[a]phenanthren-17-yl)-N-methylpentanamide]	< 0.25 µM	> 10 µM
COC(=O)N1CCC(N(C)C(=O)CC[C@@H](C)[C@H]2CC[C@H]3[C@@H]4CC=C5C[C@@H](O)CC[C@]5(C)[C@H]4CC[C@]23C)CC1 [Example 643, Methyl 4-[(4R)-4-[(1R,3aS,3bS,7S,9aR,9bS,11aR)-7-hydroxy-9a,11a-dimethyl-1H,2H,3H,3aH,3bH,4H,6H,7H,8H,9H,9aH,9bH,10H,11H,11aH-cyclopenta[a]phenanthren-1-yl]-N-methylpentanamido]piperidine-1-carboxylate]	< 0.25 µM	> 10 µM
C[C@H](CCC(=O)N(C)C1CCN(C(=O)N(C)C)CC1)[C@H]1CC[C@H]2[C@@H]3CC=C4C[C@@H](O)CC[C@]4(C)[C@H]3CC[C@]12C [Example 644, 4-((R)-4-((3S,8S,9S,10R,13R,14S,17R)-3-hydroxy-10,13-dimethyl-2,3,4,7,8,9,10,11,12,13,14,15,16,17-tetradecahydro-1H-cyclopenta[a]phenanthren-17-yl)-N-methylpentanamido)-N,N-dimethylpiperidine-1-carboxamide]	< 0.25 µM	> 10 µM
C[C@H](CCC(=O)N(C)C1CCN(C(=O)N2CCCC2)CC1)[C@H]1CC[C@H]2[C@@H]3CC=C4C[C@@H](O)CC[C@]4(C)[C@H]3CC[C@]12C [Example 645, (4R)-4-[(1R,3aS,3bS,7S,9aR,9bS,11aR)-7-hydroxy-9a,11a-dimethyl-1H,2H,3H,3aH,3bH,4H,6H,7H,8H,9H,9aH,9bH,10H,11H,11aH-cyclopenta[a]phenanthren-1-yl]-N-methyl-N-[1-(pyrrolidine-1-carbonyl)piperidin-4-yl]pentanamide]	< 0.25 µM	> 10 µM
COc1cc(N2CCN(C(=O)CC[C@@H](C)[C@H]3CC[C@H]4[C@@H]5CC=C6C[C@@H](O)CC[C@]6(C)[C@H]5CC[C@]34C)C[C@@H]2C)ncn1 [Example 646, (R)-4-((3S,8S,9S,10R,13R,14S,17R)-3-hydroxy-10,13-dimethyl-2,3,4,7,8,9,10,11,12,13,14,15,16,17-tetradecahydro-1H-cyclopenta[a]phenanthren-17-yl)-1-((S)-4-(6-methoxypyrimidin-4-yl)-3-methylpiperazin-1-yl)pentan-1-one]	< 0.25 µM	> 10 µM
Cc1nccc(N2CCN(C(=O)CC[C@@H](C)[C@H]3CC[C@H]4[C@@H]5CC=C6C[C@@H](O)CC[C@]6(C)[C@H]5CC[C@]34C)C[C@@H]2C)n1 [Example 647, (4R)-4-[(1R,3aS,3bS,7S,9aR,9bS,11aR)-7-hydroxy-9a,11a-dimethyl-1H,2H,3H,3aH,3bH,4H,6H,7H,8H,9H,9aH,9bH,10H,11H,11aH-cyclopenta[a]phenanthren-1-yl]-1-[(3S)-3-methyl-4-(2-methylpyrimidin-4-yl)piperazin-1-yl]pentan-1-one]	< 0.25 µM	> 10 µM
COc1cc(N2CCN(C(=O)CC[C@@H](C)[C@H]3CC[C@H]4[C@@H]5CC=C6C[C@@H](O)CC[C@]6(C)[C@H]5CC[C@]34C)[C@@H](C)C2)ncn1 [Example 648, (R)-4-((3S,8S,9S,10R,13R,14S,17R)-3-hydroxy-10,13-dimethyl-2,3,4,7,8,9,10,11,12,13,14,15,16,17-tetradecahydro-1H-cyclopenta[a]phenanthren-17-yl)-1-((S)-4-(6-methoxypyrimidin-4-yl)-2-methylpiperazin-1-yl)pentan-1-one]	< 0.25 µM	> 10 µM
Cc1nccc(N2CCN(C(=O)CC[C@@H](C)[C@H]3CC[C@H]4[C@@H]5CC=C6C[C@@H](O)CC[C@]6(C)[C@H]5CC[C@]34C)[C@@H](C)C2)n1 [Example 649, (R)-4-((3S,8S,9S,10R,13R,14S,17R)-3-hydroxy-10,13-dimethyl-2,3,4,7,8,9,10,11,12,13,14,15,16,17-tetradecahydro-1H-cyclopenta[a]phenanthren-17-yl)-1-((S)-2-methyl-4-(2-methylpyrimidin-4-yl)piperazin-1-yl)pentan-1-one]	< 0.25 µM	> 10 µM
C[C@H](CCC(=O)N1CCN(C(=O)C2CC2)[C@@H](C)C1)[C@H]1CC[C@H]2[C@@H]3CC=C4C[C@@H](O)CC[C@]4(C)[C@H]3CC[C@]12C [Example 650, (R)-1-((S)-4-(cyclopropanecarbonyl)-3-methylpiperazin-1-yl)-4-((3S,8S,9S,10R,13R,14S,17R)-3-hydroxy-10,13-dimethyl-2,3,4,7,8,9,10,11,12,13,14,15,16,17-tetradecahydro-1H-cyclopenta[a]phenanthren-17-yl)pentan-1-one]	< 0.25 µM	> 10 µM
C[C@H](CCC(=O)N1CCN(C(=O)C2CC2)C[C@@H]1C)[C@H]1CC[C@H]2[C@@H]3CC=C4C[C@@H](O)CC[C@]4(C)[C@H]3CC[C@]12C [Example 651, (R)-1-((S)-4-(cyclopropanecarbonyl)-2-methylpiperazin-1-yl)-4-((3S,8S,9S,10R,13R,14S,17R)-3-hydroxy-10,13-dimethyl-2,3,4,7,8,9,10,11,12,13,14,15,16,17-tetradecahydro-1H-cyclopenta[a]phenanthren-17-yl)pentan-1-one]	< 0.25 µM	> 10 µM
C[C@H](CCC(=O)N1CCN(C(=O)C(C)(C)O)[C@@H](C)C1)[C@H]1CC[C@H]2[C@@H]3CC=C4C[C@@H](O)CC[C@]4(C)[C@H]3CC[C@]12C [Example 652, (4R)-4-[(1R,3aS,3bS,7S,9aR,9bS,11aR)-7-hydroxy-9a,11a-dimethyl-1H,2H,3H,3aH,3bH,4H,6H,7H,8H,9H,9aH,9bH,10H,11H, 11 aH-cyclopenta[a]phenanthren-1-yl]-1-[(3 S)-4-(2-hydroxy-2-methylpropanoyl)-3-methylpiperazin-1-yl]pentan-1-one]	< 0.25 µM	> 10 µM

— patent US20230340011A1 (Asteroid Therapeutics, priority 2022, published 2023)
